1 substance from US20230302042A1, “METHODS FOR THE PREVENTION OF CHOLESTEROL CRYSTAL EMBOLIZATION WITH CYCLODEXTRINS” (Beren Therapeutics P.B.C., priority 2020, published 2023) can be followed below.

The conditions of assay [1]: human subject; single-ascending intravenous doses 500, 750, 1,000, 1,000 mg/kg every 4 weeks; plasma pre-dose, post-dose, 1 hour and 24 hours post-dose; FIG. 1A. Here is the method:
A human subject was treated with 2-hydroxypropyl-beta-cyclodextrin with single-ascending doses administered intravenously every 4 weeks according to Table 1 below. […] For each dose, whole blood was collected pre-dose, post-dose (line flush), 1 hour post-dose, and 24 hours post-dose. Plasma was separated from the whole blood and subjected to a cholesterol crystal dissolution capacity (CCDC) assay using techniques similar to those described in the literature. The CCDC assay measures the ability of a sample to dissolve cholesterol crystals.

The conditions of assay [2]: pre-dose human blood plasma incubated ex vivo with the cyclodextrin; FIG. 1B. As for the experimental part:
For each dose, whole blood was collected pre-dose, post-dose (line flush), 1 hour post-dose, and 24 hours post-dose. Plasma was separated from the whole blood and subjected to a cholesterol crystal dissolution capacity (CCDC) assay using techniques similar to those described in the literature. The CCDC assay measures the ability of a sample to dissolve cholesterol crystals.
Blood plasma pre-dose was also incubated ex vivo with 2-hydroxypropyl-beta-cyclodextrin and the ability of the plasma to dissolve cholesterol crystals was measured.

The conditions of assay [3]: human subject; intravenous doses 500-1,000 mg/kg every 4 weeks; FIGS. 2A-2C. Here is the method:
(§1) A human subject was treated with 2-hydroxypropyl-beta-cyclodextrin with single-ascending doses administered intravenously every 4 weeks according to Table 1 below.
(§2) In this Example, a human subject was treated with 2-hydroxypropyl-beta-cyclodextrin according to Example 1, and plasma levels of 24S-hydroxycholesterol and 27-hydroxycholesterol were measured. […] 27-hydroxycholesterol is an endogenous LXR ligand leading to a downstream anti-inflammatory gene signature which may, in some embodiments, address the detrimental inflammatory response via NLRP3 inflammasome effects of cholesterol crystal embolization. The elevated 27-hydroxycholesterol is also a cellular marker of macrophage activation and increased activity for cholesterol crystal phagocytosis and clearance.

The test system of assay [4] is 24S-hydroxycholesterol. To be noted: human subject; intravenous doses 500-1,000 mg/kg every 4 weeks; FIGS. 2A-2C. As for the experimental part: as §1, §2
For assay [5], the system named is 27-hydroxycholesterol. To be noted: human subject; intravenous doses 500-1,000 mg/kg every 4 weeks; FIGS. 2A-2C. Here is the method:
as §1, §2

In assay [6] the test system is ABCA1. The settings on record: human subject; intravenous doses 500-1,000 mg/kg every 4 weeks; peripheral blood; FIGS. 3A-3D. Here is the method: as §1
(§3) In this Example, a human subject was treated with 2-hydroxypropyl-beta-cyclodextrin according to Example 1, and mRNA levels of the LXR transcription factor-regulated genes, ABCA1 and ABCG1, were measured. […] ABCA1 and ABCG1 are important cholesterol transporters and are responsible for cholesterol efflux from cells, loading of HDL particles for reverse cholesterol transport (RCT), and excretion via the hepatic pathway, to potentially reduce the cholesterol and cholesterol crystal emboli released into the vasculature and stabilize ruptured atherosclerotic plaque.

Assay [7] deals with ABCG1. The settings on record: human subject; intravenous doses 500-1,000 mg/kg every 4 weeks; peripheral blood; FIGS. 3A-3D. As for the experimental part:
as §1, §3

Take 2-hydroxypropyl-beta-cyclodextrin: the “capability of blood plasma to dissolve cholesterol crystals (CCDC) after treatment” value in assay [1] is “increased capability”. The “capacity of plasma to dissolve cholesterol crystals after ex vivo incubation” value in assay [2] is reported as “increased capacity”. The “total cholesterol levels in plasma” value in assay [3] is “remained stable”. The “plasma level of 24S-hydroxycholesterol” value in assay [4] is on record as “increased plasma levels”. Moreover, the “plasma level of 27-hydroxycholesterol” value in assay [5] is “increased plasma levels”. Further, the “mRNA level of ABCA1” value in assay [6] is “increased mRNA levels”. Also, in assay [7], the “mRNA level of ABCG1” value was “increased mRNA levels”.
